Results as given in paper PMC5234683 (Psychopharmacology, 2014).
Like-named read-outs stand apart in the source and are kept apart here.

Key:
[1] = biological target: Sigma-2; details: read-out: Ki (nM) Sigma-2; PDSP database; ref PDSP http://pdsp.med.unc.edu/; cited from earlier work
[2] = biological target: 5-HT1D; details: read-out: Ki (nM) 5-HT1D; PDSP database; ref PDSP http://pdsp.med.unc.edu/; cited from earlier work
[3] = biological target: Alpha1B; details: read-out: Ki (nM) Alpha1B; PDSP database; ref PDSP http://pdsp.med.unc.edu/; cited from earlier work
[4] = biological target: T1, D1R (Homo sapiens, UniProt P21728); details: agonist mode; tested up to 0.1 mM
[5] = biological target: H3; details: read-out: Ki (nM) H3; PDSP database; ref PDSP http://pdsp.med.unc.edu/; cited from earlier work
[6] = biological target: Alpha2B; details: read-out: Ki (nM) Alpha2B; PDSP database; ref PDSP http://pdsp.med.unc.edu/; cited from earlier work
[7] = biological target: KOR; details: read-out: Ki (nM) KOR; PDSP database; ref PDSP http://pdsp.med.unc.edu/; cited from earlier work
[8] = biological target: 5-HT2B; details: read-out: Ki (nM) 5-HT2B; PDSP database; ref PDSP http://pdsp.med.unc.edu/; cited from earlier work
[9] = biological target: D2; details: read-out: Ki (nM) D2; PDSP database; ref PDSP http://pdsp.med.unc.edu/; cited from earlier work
[10] = biological target: Alpha2C; details: read-out: Ki (nM) Alpha2C; PDSP database; ref PDSP http://pdsp.med.unc.edu/; cited from earlier work
[11] = biological target: T2, D4R (Homo sapiens, UniProt P21917); assay: DiscoveRx PathHunter β-arrestin-2 recruitment assay, CHO-K1 cells; assay type: cell-based; details: agonist mode; concentrations up to 100 μM
[12] = biological target: T3, D3R (Homo sapiens, UniProt P35462); assay: Radioligand competition binding, [3H]-methylspiperone, HEK293 membranes; details: competition with 0.5 nM [3H]-methylspiperone; n=3
[13] = biological target: Sigma-1; details: read-out: Ki (nM) Sigma-1; PDSP database; ref PDSP http://pdsp.med.unc.edu/; cited from earlier work
[14] = biological target: T1, D1R; assay: DiscoveRx PathHunter β-arrestin-2 recruitment assay, CHO-K1 cells; assay type: cell-based; details: agonist mode; concentrations up to 100 μM
[15] = biological target: H2; details: read-out: Ki (nM) H2; PDSP database; ref PDSP http://pdsp.med.unc.edu/; cited from earlier work
[16] = biological target: 5-HT3; details: read-out: Ki (nM) 5-HT3; PDSP database; ref PDSP http://pdsp.med.unc.edu/; cited from earlier work
[17] = biological target: D5; details: read-out: Ki (nM) D5; PDSP database; ref PDSP http://pdsp.med.unc.edu/; cited from earlier work
[18] = biological target: Alpha2A; details: read-out: Ki (nM) Alpha2A; PDSP database; ref PDSP http://pdsp.med.unc.edu/; cited from earlier work
[19] = biological target: D1; details: read-out: Ki (nM) D1; PDSP database; ref PDSP http://pdsp.med.unc.edu/; cited from earlier work
[20] = biological target: T1, D1R; assay: HTRF cAMP assay; assay type: cell-based; details: agonist mode; Supplemental Fig. 1
[21] = biological target: 5-HT2A; details: read-out: Ki (nM) 5-HT2A; PDSP database; ref PDSP http://pdsp.med.unc.edu/; cited from earlier work
[22] = biological target: SERT; details: read-out: Ki (nM) SERT; PDSP database; ref PDSP http://pdsp.med.unc.edu/; cited from earlier work
[23] = biological target: Alpha1A; details: read-out: Ki (nM) Alpha1A; PDSP database; ref PDSP http://pdsp.med.unc.edu/; cited from earlier work
[24] = biological target: T4, D2R (Homo sapiens, UniProt P14416); assay type: cell-based; details: agonist mode; 100 μM forskolin
[25] = biological target: H1; details: read-out: Ki (nM) H1; PDSP database; ref PDSP http://pdsp.med.unc.edu/; cited from earlier work
[26] = biological target: D4; details: read-out: Ki (nM) D4; PDSP database; ref PDSP http://pdsp.med.unc.edu/; cited from earlier work
[27] = biological target: 5-HT5; details: read-out: Ki (nM) 5-HT5; PDSP database; ref PDSP http://pdsp.med.unc.edu/; cited from earlier work
[28] = biological target: T5, D5R (Homo sapiens, UniProt P21918); assay: DiscoveRx HitHunter cAMP accumulation assay, HEK293 cells; assay type: cell-based; details: agonist mode
[29] = biological target: Beta2; details: read-out: Ki (nM) Beta2; PDSP database; ref PDSP http://pdsp.med.unc.edu/; cited from earlier work
[30] = biological target: D1-like receptors in bovine striatal membranes (Bos taurus, UniProt Q95136); assay: Bovine striatal radioligand binding assay, [3H]-SCH23390; details: read-out: Ki, one-site fit, 0.5 nM [3H]-SCH23390
[31] = biological target: NET; details: read-out: Ki (nM) NET; PDSP database; ref PDSP http://pdsp.med.unc.edu/; cited from earlier work
[32] = biological target: 5-HT6; details: read-out: Ki (nM) 5-HT6; PDSP database; ref PDSP http://pdsp.med.unc.edu/; cited from earlier work
[33] = system: 5-HT1A receptor; details: ref Gao et al. 2011; Guo et al. 2009; cited from earlier work
[34] = biological target: T2, D4R; assay: Radioligand competition binding, [3H]-methylspiperone, CHO membranes; details: competition with 0.5 nM [3H]-methylspiperone; n=3
[35] = biological target: GABA-A; details: read-out: Ki (nM) GABA-A; PDSP database; ref PDSP http://pdsp.med.unc.edu/; cited from earlier work
[36] = biological target: Beta1; details: read-out: Ki (nM) Beta1; PDSP database; ref PDSP http://pdsp.med.unc.edu/; cited from earlier work
[37] = biological target: DOR; details: read-out: Ki (nM) DOR; PDSP database; ref PDSP http://pdsp.med.unc.edu/; cited from earlier work
[38] = biological target: T4, D2R; assay: Radioligand competition binding, [3H]-methylspiperone, HEK293 membranes; details: competition with 0.5 nM [3H]-methylspiperone; n=3
[39] = biological target: T3, D3R; assay: DiscoveRx PathHunter β-arrestin-2 recruitment assay, CHO-K1 cells; assay type: cell-based; details: agonist mode; concentrations up to 100 μM
[40] = biological target: CB1; details: read-out: Ki (nM) CB1; PDSP database; ref PDSP http://pdsp.med.unc.edu/; cited from earlier work
[41] = biological target: M2; details: read-out: Ki (nM) M2; PDSP database; ref PDSP http://pdsp.med.unc.edu/; cited from earlier work
[42] = biological target: M5; details: read-out: Ki (nM) M5; PDSP database; ref PDSP http://pdsp.med.unc.edu/; cited from earlier work
[43] = biological target: CB2; details: read-out: Ki (nM) CB2; PDSP database; ref PDSP http://pdsp.med.unc.edu/; cited from earlier work
[44] = biological target: T5, D5R; assay: DiscoveRx PathHunter β-arrestin-2 recruitment assay, CHO-K1 cells; assay type: cell-based; details: agonist mode; concentrations up to 100 μM
[45] = ref Sun et al. (2009); cited from earlier work
[46] = biological target: D3; details: read-out: Ki (nM) D3; PDSP database; ref PDSP http://pdsp.med.unc.edu/; cited from earlier work
[47] = biological target: 5-HT2C; details: read-out: Ki (nM) 5-HT2C; PDSP database; ref PDSP http://pdsp.med.unc.edu/; cited from earlier work
[48] = biological target: DAT; details: read-out: Ki (nM) DAT; PDSP database; ref PDSP http://pdsp.med.unc.edu/; cited from earlier work
[49] = biological target: 5-HT1E; details: read-out: Ki (nM) 5-HT1E; PDSP database; ref PDSP http://pdsp.med.unc.edu/; cited from earlier work
[50] = biological target: H4; details: read-out: Ki (nM) H4; PDSP database; ref PDSP http://pdsp.med.unc.edu/; cited from earlier work
[51] = biological target: T1, D1R; assay: Radioligand competition binding, [3H]-SCH23390, HEK293 membranes; details: competition with 0.5 nM [3H]-SCH23390; single site; n=3
[52] = biological target: MOR; details: read-out: Ki (nM) MOR; PDSP database; ref PDSP http://pdsp.med.unc.edu/; cited from earlier work
[53] = biological target: T4, D2R; assay: DiscoveRx PathHunter β-arrestin-2 recruitment assay, CHO-K1 cells; assay type: cell-based; details: agonist mode; concentrations up to 100 μM
[54] = biological target: 5-HT1B; details: read-out: Ki (nM) 5-HT1B; PDSP database; ref PDSP http://pdsp.med.unc.edu/; cited from earlier work
[55] = biological target: 5-HT7; details: read-out: Ki (nM) 5-HT7; PDSP database; ref PDSP http://pdsp.med.unc.edu/; cited from earlier work
[56] = biological target: 5-HT1A; details: read-out: Ki (nM) 5-HT1A; PDSP database; ref PDSP http://pdsp.med.unc.edu/; cited from earlier work
[57] = biological target: D1R–D2R heteromer (Homo sapiens, UniProt P14416+P21728); assay: D1R–D2R-mediated calcium mobilization assay, co-transfected HEK293T cells; assay type: cell-based

In the case of `COc1cc2c(cc1O)[C@@H]1Cc3ccc(O)c(OC)c3CN1CC2` [(−)-stepholidine, (−)-Stepholidine], the Ki [1] is given as 53.4 nM, the Ki [2] is given as greater than 10000 nM and the Ki [3] is given as greater than 10000 nM. The “agonist activity, cAMP accumulation” value [4] was “has no effect on cAMP accumulation”, the Ki [5] was greater than 10000 nM and the Ki [6] was 6880 nM. For the same compound, the Ki [7] was greater than 10000 nM, the Ki [8] was 226 nM and the Ki [9] was 974 nM. The Ki [10] was 214 nM, the “agonist activity, β-arrestin-2 recruitment” value [11] was “failed to produce any measurable recruitment of β-arrestin-2” and the Ki [12] was 0.0234 ± 0.0087 µM. The Ki [13] was 1600 nM, the “agonist activity, β-arrestin-2 recruitment” value [14] was “failed to produce any measurable recruitment of β-arrestin-2” and the Ki [15] was greater than 10000 nM. The Ki [16] was greater than 10000 nM, the Ki [17] was 4.4 nM and the Ki [18] was greater than 10000 nM. For the same compound, the Ki [19] was 5.9 nM, the “agonist activity, cAMP accumulation (HTRF)” value [20] was “did not stimulate D1R-mediated cAMP accumulation” and the Ki [21] was greater than 10000 nM. For the same compound, the Ki [22] was greater than 10000 nM, the Ki [23] was greater than 10000 nM and the “agonist activity, inhibition of forskolin-stimulated cAMP accumulation” value [24] was “has no effect on inhibiting cAMP accumulation”. The Ki [25] was greater than 10000 nM, the Ki [26] was 3750 nM and the Ki [27] was greater than 10000 nM. The “agonist activity, cAMP accumulation” value [28] was “failed to produce any measurable cAMP accumulation”, the Ki [29] was greater than 10000 nM and the Ki ([30]; control, absence of GTPγS) was 0.016 ± 0.0024 µM. The Ki ([30]; presence of 1 mM GTPγS) was 0.0192 ± 0.0044 µM, the Ki [31] was greater than 10000 nM and the Ki [32] was greater than 10000 nM. The “functional profile at the 5-HT1A receptor” value [33] was “partial agonist”, the Ki [34] was 1.45 µM and the Ki [35] was greater than 10000 nM. For the same compound, the Ki [36] was greater than 10000 nM, the Ki [37] was greater than 10000 nM and the Ki [38] was 0.0116 ± 0.0042 µM. For the same compound, the “agonist activity, β-arrestin-2 recruitment” value [39] was “failed to produce any measurable recruitment of β-arrestin-2”, the Ki [40] was greater than 10000 nM and the Ki [41] was greater than 10000 nM. The Ki [42] was greater than 10000 nM, the Ki [43] was greater than 10000 nM and the “agonist activity, β-arrestin-2 recruitment” value [44] was “failed to produce any measurable recruitment of β-arrestin-2”. The metabolism after administration [45] was “rapidly metabolized within minutes of administration”, the Ki [46] was 30.1 nM and the Ki [47] was greater than 10000 nM. For the same compound, the Ki [48] was greater than 10000 nM, the Ki [49] was greater than 10000 nM and the Ki [50] was greater than 10000 nM. The Ki [51] was 0.0051 ± 0.0023 µM, the Ki [52] was greater than 10000 nM and the “agonist activity, β-arrestin-2 recruitment” value [53] was “failed to produce any measurable recruitment of β-arrestin-2”. For the same compound, the Ki [54] was 6980 nM, the Ki [55] was greater than 10000 nM and the Ki [56] was 143 nM. The “agonist activity, Ca2+ mobilization” value ([57]; agonist mode, concentrations up to 50 μM) was “no Ca^2+ mobilization was detected” and the IC50 ([57]; read-out: IC50, inhibition of dopamine-stimulated calcium mobilization, EC80 (1 μM) dopamine, n=3) was 0.0193 ± 0.0037 µM.
